Molecular target: T1, ABCG2 (breast cancer resistance protein, BCRP) (Homo sapiens, UniProt Q9UNQ0)
T1 sequence (Q9UNQ0 1-655): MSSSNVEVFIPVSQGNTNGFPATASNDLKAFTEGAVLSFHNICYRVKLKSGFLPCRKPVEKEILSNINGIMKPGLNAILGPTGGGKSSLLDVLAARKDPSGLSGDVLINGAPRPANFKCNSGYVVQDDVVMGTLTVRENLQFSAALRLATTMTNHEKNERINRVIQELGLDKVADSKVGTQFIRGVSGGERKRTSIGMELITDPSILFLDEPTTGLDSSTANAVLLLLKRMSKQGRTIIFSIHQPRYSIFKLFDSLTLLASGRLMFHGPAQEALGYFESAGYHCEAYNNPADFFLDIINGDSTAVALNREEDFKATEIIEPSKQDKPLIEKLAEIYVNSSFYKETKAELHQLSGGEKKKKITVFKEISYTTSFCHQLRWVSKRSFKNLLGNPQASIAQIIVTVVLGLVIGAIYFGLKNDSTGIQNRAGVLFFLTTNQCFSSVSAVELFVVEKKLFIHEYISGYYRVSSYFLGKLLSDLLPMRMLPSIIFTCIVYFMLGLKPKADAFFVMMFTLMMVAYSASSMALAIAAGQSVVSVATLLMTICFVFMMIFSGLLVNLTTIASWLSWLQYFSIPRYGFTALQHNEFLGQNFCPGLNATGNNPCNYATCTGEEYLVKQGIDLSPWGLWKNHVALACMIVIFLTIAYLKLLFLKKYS
Assay: Hoechst […] efflux inhibition by flow cytometry in HEK293-ABCG2 cells; 5D3 conformational antibody shift; kinetics with mitoxantrone
Assay type: cell-based

## Cc1cccc(C)c1OCC(=O)N[C@@H](Cc1ccccc1)[C@@H](O)C[C@H](Cc1ccccc1)NC(=O)[C@H](C(C)C)N1CCCNC1=O [LPV, lopinavir]
  IC50: 23.4 µM

Reference: PMC10776880 (EXCLI Journal, 2023)
